According to ChEMBL document CHEMBL5678809, “Preclinical characterization of GLPG0634, a selective inhibitor of JAK1, for the treatment of inflammatory diseases” (J Immunol, 2013):
Active and inactive are the calls of the source. The calls are words filed in the database; no cut-off is given here.

Experiments:
[1] = target: Ribosomal protein S6 kinase alpha-1 (Homo sapiens) (UniProt Q15418); test: Inhibition of Rsk1 (unknown origin) at 1 uM relative to control
Mus musculus [2] = test: Antiarthritic activity against collagen-induced arthritis DBA/1J mouse model assessed as reduction in TNFalpha expression at 50 mg/kg, po measured for 4 hrs; assay type: functional, organism-based
[3] = target: Serine/threonine-protein kinase PAK 6 (Homo sapiens, UniProt Q9NQU5); test: Inhibition of PAK6 (unknown origin)
[4] = target: Serine/threonine-protein kinase BRSK1 (Homo sapiens) (UniProt Q8TDC3); test: Inhibition of BrSK1 (unknown origin) at 1 uM relative to control
Mus musculus [5] = test: Antiarthritic activity against collagen-induced arthritis DBA/1J mouse model assessed as MCP-3 level in serum at 50 mg/kg, po measured for 4 hrs by luminex analysis (reference value: 224 +/- 15.3 ng/ml); assay type: functional
[6] = target: Ribosomal protein S6 kinase beta-2 (Homo sapiens) (UniProt Q9UBS0); test: Inhibition of p70S6K2 (unknown origin) at 1 uM relative to control
[7] = target: Serine/threonine-protein kinase VRK2 (Homo sapiens) (UniProt Q86Y07); test: Inhibition of VRK2 (unknown origin) at 1 uM relative to control
[8] = target: Mitogen-activated protein kinase kinase kinase 9 (Homo sapiens) (UniProt P80192); test: Inhibition of MLK1 (unknown origin) at 1 uM relative to control
[9] = Tmax in CD-1 mouse at 5 mg/kg, po measured upto 24 hrs by LC-MS analysis; assay type: ADME, organism-based; conditions: in vivo
[10] = target: Serine/threonine-protein kinase pim-1 (Homo sapiens) (UniProt P11309); test: Inhibition of Pim-1 (unknown origin) at 1 uM relative to control
[11] = target: Tyrosine-protein kinase receptor TYRO3 (Homo sapiens) (UniProt Q06418); test: Inhibition of Rse (unknown origin) at 1 uM relative to control
[12] = target: FKBP12A/mTOR (Homo sapiens) (UniProt P62942+P42345); test: Inhibition of mTOR/FKBP12 (unknown origin) at 1 uM relative to control; assay type: protein-complex assay
Mus musculus [13] = test: Antiarthritic activity against collagen-induced arthritis DBA/1J mouse model assessed as reduction in RANKL expression at 50 mg/kg, po measured for 4 hrs; assay type: functional, organism-based
[14] = target: Tyrosine-protein kinase ABL2 (Homo sapiens) (UniProt P42684); test: Inhibition of Arg (unknown origin) at 1 uM relative to control
[15] = target: Mitogen-activated protein kinase kinase kinase kinase 4 (Homo sapiens, UniProt O95819); test: Inhibition of MAP4K4 (unknown origin)
[16] = target: Serine/threonine-protein kinase ICK (Homo sapiens, UniProt Q9UPZ9); test: Inhibition of ICK (unknown origin)
[17] = Clearance in Sprague-Dawley rat at 1 mg/kg, iv measured upto 8 hrs by LC-MS analysis; assay type: ADME, organism-based; conditions: in vivo
[18] = target: Vascular endothelial growth factor receptor 3 (Homo sapiens, UniProt P35916); test: Inhibition of Flt4 (unknown origin) at 1 uM relative to control
[19] = target: Serine/threonine-protein kinase STK11 (Homo sapiens) (UniProt Q15831); test: Inhibition of LKB1 (unknown origin) at 1 uM relative to control
[20] = target: Serine/threonine-protein kinase 3 (Homo sapiens) (UniProt Q13188); test: Inhibition of MST2 (unknown origin) at 1 uM relative to control
[21] = Cmax in Sprague-Dawley rat at 5 mg/kg, po measured upto 24 hrs by LC-MS analysis; assay type: ADME, organism-based; conditions: in vivo
[22] = target: Receptor-type tyrosine-protein kinase FLT3 (Homo sapiens, UniProt P36888); test: Inhibition of Flt3 (unknown origin)
[23] = target: Protein-tyrosine kinase 2-beta (Homo sapiens) (UniProt Q14289); test: Inhibition of Pyk2 (unknown origin) at 1 uM relative to control
RPMI-8226 = test: Inhibition of human […] cell differentiation assessed as effect on IL-4 mRNA expression at 0.1 to 1 uM by RT-PCR analysis; assay type: functional, cell-based; conditions: dose 0.1-1 µM
[24] = target: RAF proto-oncogene serine/threonine-protein kinase (Homo sapiens) (UniProt P04049); test: Inhibition of c-RAF (unknown origin) at 1 uM relative to control
[25] = target: Tyrosine-protein kinase Mer (Homo sapiens, UniProt Q12866); test: Inhibition of Mer (unknown origin)
[26] = target: Homeodomain-interacting protein kinase 2 (Homo sapiens, UniProt Q9H2X6); test: Inhibition of HIPK2 (unknown origin)
Mus musculus [27] = test: Antiarthritic activity against collagen-induced arthritis DBA/1J mouse model assessed as IL-1alpha level in serum at 50 mg/kg, po measured for 4 hrs by luminex analysis (reference value: 359 +/- 83.8 ng/ml); assay type: functional
[28] = target: Tyrosine-protein kinase Fyn (Homo sapiens) (UniProt P06241); test: Inhibition of Fyn (unknown origin) at 1 uM relative to control
Mus musculus [29] = test: Antiarthritic activity against collagen-induced arthritis DBA/1J mouse model assessed as reduction in IL-6 level in serum at 50 mg/kg, po measured for 4 hrs by luminex analysis; assay type: functional, organism-based
[30] = Half life in Sprague-Dawley rat at 1 mg/kg, iv measured upto 8 hrs by LC-MS analysis; assay type: ADME, organism-based; conditions: in vivo
[31] = target: Death-associated protein kinase 1 (Homo sapiens, UniProt P53355); test: Inhibition of DAPK1 (unknown origin)
Misshapen-like kinase 1 = Misshapen-like kinase 1 (Homo sapiens, UniProt Q8N4C8); test: Inhibition of MINK1 (unknown origin) at 1 uM relative to control
[32] = target: Serine/threonine-protein kinase tousled-like 2 (Homo sapiens) (UniProt Q86UE8); test: Inhibition of TLK2 (unknown origin) at 1 uM relative to control
[33] = target: Serine/threonine-protein kinase NLK (Homo sapiens) (UniProt Q9UBE8); test: Inhibition of NLK (unknown origin) at 1 uM relative to control
[34] = target: Receptor tyrosine-protein kinase erbB-4 (Homo sapiens) (UniProt Q15303); test: Inhibition of ErbB4 (unknown origin) at 1 uM relative to control
Rattus norvegicus = test: In vivo inhibition of JAK1 in Sprague-Dawley rat assessed as reduction in MX2 mRNA level at 1 to 10 mg/kg, po measured for 24 hrs by RT-PCR analysis; assay type: functional, organism-based; conditions: dose 1-10 mg/kg
[35] = target: Ribosomal protein S6 kinase alpha-5 (Homo sapiens) (UniProt O75582); test: Inhibition of MSK1 (unknown origin) at 1 uM relative to control
[36] = target: Serine/threonine-protein kinase DCLK2 (Homo sapiens) (UniProt Q8N568); test: Inhibition of DCAMKL2 (unknown origin) at 1 uM relative to control
Mus musculus [37] = test: Antiarthritic activity against collagen-induced arthritis DBA/1J mouse model assessed as reduction in infiltration of CD3 positive T cells in paw at 50 mg/kg, po administered twice daily for 14 days by immunohistochemistry analysis; assay type: functional, organism-based; conditions: T-cell, time 14.0 day

Sequence of Tyrosine-protein kinase Mer (Q12866 whole entry): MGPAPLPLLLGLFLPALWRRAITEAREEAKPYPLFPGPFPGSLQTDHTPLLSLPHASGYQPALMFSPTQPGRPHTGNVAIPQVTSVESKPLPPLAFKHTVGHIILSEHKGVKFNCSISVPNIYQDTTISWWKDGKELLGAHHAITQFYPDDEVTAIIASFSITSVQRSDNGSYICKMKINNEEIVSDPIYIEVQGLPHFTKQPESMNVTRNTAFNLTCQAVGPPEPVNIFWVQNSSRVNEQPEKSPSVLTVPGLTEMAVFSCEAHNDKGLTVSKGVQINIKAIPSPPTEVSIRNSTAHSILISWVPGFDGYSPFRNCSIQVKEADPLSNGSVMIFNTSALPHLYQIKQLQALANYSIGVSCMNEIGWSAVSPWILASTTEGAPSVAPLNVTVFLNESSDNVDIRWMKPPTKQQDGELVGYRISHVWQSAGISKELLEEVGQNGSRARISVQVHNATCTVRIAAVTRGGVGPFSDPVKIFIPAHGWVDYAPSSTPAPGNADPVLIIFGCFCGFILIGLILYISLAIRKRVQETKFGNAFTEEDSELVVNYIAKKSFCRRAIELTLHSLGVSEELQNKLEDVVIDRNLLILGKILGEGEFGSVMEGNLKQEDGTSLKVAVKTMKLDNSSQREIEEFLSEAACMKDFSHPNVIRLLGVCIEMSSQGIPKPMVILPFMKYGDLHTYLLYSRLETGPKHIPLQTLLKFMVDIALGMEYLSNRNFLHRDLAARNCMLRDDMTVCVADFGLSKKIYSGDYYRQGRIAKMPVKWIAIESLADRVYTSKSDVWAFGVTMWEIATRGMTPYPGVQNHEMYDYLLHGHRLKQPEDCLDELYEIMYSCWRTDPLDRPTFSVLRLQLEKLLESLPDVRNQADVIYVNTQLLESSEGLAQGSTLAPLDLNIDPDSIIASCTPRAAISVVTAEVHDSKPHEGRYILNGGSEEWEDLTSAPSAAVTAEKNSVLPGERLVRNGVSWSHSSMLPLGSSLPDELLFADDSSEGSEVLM
Sequence of RAF proto-oncogene serine/threonine-protein kinase (Homo sapiens) (P04049 whole entry): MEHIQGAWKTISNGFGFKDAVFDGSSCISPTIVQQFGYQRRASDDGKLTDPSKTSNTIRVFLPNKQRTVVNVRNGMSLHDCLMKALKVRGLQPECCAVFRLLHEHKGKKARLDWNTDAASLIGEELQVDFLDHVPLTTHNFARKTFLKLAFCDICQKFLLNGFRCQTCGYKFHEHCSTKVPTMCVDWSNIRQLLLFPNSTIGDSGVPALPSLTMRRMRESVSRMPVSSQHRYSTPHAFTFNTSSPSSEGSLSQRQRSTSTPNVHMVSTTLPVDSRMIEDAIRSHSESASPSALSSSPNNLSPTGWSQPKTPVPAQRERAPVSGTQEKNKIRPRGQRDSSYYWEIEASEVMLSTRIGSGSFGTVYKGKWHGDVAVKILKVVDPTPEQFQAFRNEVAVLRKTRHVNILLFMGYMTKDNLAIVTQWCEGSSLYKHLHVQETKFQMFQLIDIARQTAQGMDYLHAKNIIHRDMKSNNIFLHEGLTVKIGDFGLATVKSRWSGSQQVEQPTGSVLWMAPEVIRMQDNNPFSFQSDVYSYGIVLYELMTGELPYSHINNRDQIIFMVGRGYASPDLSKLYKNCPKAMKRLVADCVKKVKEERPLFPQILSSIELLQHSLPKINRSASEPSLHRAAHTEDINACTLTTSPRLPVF
Sequence of Protein-tyrosine kinase 2-beta (Homo sapiens) (Q14289 whole entry, looked up): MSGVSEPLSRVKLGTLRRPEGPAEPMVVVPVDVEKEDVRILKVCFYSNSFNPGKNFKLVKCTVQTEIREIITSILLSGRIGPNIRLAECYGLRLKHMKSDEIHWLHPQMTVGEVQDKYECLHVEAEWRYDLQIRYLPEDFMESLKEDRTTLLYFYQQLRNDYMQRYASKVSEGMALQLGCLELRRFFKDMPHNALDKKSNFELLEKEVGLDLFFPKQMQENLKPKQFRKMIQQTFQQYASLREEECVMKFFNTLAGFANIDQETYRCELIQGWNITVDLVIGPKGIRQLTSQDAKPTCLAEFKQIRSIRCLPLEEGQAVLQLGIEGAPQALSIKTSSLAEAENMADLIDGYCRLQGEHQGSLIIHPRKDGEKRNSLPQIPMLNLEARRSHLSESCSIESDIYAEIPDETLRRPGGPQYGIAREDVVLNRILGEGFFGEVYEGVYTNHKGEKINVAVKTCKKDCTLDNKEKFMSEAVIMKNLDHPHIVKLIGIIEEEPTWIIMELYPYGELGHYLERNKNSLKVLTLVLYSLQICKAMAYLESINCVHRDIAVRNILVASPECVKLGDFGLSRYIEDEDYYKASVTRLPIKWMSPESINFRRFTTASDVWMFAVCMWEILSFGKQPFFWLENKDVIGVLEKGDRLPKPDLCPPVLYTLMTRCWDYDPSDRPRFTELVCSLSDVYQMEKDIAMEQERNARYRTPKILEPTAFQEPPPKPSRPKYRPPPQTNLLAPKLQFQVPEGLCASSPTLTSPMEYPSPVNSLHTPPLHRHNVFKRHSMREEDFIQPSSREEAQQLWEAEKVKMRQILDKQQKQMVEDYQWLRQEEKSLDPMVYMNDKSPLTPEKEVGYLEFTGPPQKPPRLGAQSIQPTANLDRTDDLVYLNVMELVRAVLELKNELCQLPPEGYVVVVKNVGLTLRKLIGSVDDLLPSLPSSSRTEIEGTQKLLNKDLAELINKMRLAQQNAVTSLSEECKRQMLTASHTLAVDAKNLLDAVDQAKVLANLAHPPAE
Sequence of Homeodomain-interacting protein kinase 2 (Q9H2X6 whole entry): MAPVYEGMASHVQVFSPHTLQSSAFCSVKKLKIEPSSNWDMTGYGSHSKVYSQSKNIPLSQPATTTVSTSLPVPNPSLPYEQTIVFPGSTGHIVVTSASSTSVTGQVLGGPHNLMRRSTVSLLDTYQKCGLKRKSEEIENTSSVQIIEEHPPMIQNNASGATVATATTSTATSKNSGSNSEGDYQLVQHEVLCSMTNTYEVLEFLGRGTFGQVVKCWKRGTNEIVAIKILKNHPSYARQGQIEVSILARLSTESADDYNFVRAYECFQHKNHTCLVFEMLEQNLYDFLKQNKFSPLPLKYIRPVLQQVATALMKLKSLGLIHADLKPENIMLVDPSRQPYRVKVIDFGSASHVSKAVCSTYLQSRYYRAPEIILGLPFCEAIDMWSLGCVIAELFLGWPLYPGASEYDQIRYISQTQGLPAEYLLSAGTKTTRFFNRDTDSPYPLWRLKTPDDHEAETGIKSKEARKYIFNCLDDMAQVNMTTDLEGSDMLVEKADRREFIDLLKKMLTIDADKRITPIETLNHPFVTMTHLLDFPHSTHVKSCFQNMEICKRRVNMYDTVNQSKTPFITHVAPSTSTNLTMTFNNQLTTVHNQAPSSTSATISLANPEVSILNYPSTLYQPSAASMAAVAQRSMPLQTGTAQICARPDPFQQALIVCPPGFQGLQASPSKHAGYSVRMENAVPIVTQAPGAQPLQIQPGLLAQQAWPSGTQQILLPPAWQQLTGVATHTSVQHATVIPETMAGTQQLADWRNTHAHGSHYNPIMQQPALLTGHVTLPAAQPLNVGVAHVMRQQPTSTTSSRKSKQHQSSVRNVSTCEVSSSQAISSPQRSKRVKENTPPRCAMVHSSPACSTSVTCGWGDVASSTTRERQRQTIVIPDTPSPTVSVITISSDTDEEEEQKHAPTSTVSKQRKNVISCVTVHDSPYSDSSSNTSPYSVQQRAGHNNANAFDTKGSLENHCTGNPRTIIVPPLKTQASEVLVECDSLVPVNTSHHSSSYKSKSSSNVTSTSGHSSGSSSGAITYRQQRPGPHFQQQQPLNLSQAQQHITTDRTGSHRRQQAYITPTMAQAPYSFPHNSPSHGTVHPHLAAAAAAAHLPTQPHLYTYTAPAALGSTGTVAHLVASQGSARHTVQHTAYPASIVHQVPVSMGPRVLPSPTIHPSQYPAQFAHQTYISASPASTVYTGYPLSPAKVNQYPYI
Sequence of Mitogen-activated protein kinase kinase kinase kinase 4 (O95819 whole entry): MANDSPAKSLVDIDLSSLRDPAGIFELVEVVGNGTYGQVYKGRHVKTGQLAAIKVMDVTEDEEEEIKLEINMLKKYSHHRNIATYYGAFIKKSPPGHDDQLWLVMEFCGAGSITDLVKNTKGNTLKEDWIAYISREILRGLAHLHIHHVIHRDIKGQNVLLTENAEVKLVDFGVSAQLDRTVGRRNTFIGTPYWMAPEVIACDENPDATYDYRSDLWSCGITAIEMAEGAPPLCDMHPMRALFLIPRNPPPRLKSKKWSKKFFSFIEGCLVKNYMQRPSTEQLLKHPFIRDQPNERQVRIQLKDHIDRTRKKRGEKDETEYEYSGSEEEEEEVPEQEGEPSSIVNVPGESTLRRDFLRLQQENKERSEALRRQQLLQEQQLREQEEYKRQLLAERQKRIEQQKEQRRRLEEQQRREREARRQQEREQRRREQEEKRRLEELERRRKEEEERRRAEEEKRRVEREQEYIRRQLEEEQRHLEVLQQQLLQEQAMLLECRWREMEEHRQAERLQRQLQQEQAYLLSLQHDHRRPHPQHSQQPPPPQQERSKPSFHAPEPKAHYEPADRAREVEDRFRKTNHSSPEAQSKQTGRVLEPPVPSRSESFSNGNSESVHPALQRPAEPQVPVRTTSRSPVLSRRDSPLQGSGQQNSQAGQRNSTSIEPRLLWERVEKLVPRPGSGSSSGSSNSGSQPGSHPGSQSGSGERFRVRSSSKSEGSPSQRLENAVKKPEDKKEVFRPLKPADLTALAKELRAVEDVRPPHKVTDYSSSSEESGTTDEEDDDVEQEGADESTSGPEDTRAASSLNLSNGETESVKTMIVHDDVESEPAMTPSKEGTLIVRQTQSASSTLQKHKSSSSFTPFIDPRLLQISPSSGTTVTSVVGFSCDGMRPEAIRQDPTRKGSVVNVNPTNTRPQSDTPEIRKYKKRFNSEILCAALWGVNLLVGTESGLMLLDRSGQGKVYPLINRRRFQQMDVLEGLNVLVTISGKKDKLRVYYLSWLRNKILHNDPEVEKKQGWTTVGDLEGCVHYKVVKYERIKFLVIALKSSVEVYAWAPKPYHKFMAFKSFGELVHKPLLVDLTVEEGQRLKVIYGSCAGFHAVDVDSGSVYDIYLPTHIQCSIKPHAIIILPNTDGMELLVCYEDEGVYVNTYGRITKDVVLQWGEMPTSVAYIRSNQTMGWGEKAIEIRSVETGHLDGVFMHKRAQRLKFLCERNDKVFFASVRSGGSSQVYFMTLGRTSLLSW

inhibition [1]: 2%
IC50 [3]: > 10 µM
inhibition [4]: -5%
inhibition [6]: -6%
inhibition [7]: 2%
inhibition [8]: 1%
Tmax [9]: 0.5 h
inhibition [10]: -7%
inhibition [11]: 4%
inhibition [12]: 3%
inhibition [14]: 14%
IC50 [15]: > 10 µM
IC50 [16]: > 10 µM
clearance [17]: 23.3 mL/min/kg
inhibition [18]: 77%
inhibition [19]: -5%
inhibition [20]: -10%
Cmax [21]: 310 ng/mL
IC50 [22]: 0.338 µM
inhibition [23]: -8%
inhibition [24]: -4%
IC50 [25]: 1.27 µM
IC50 [26]: > 10 µM
inhibition [28]: 0%
half-life [30]: 1.6 h
inhibition (Misshapen-like kinase 1): -2%
inhibition [32]: -6%
inhibition [33]: -6%
inhibition [34]: -5%
inhibition [35]: -1%
inhibition [36]: 12%
SMILES: O=C(Nc1nc2cccc(-c3ccc(CN4CCS(=O)(=O)CC4)cc3)n2n1)C1CC1 [FILGOTINIB]
Activity (Mus musculus [2]): Active
Activity (Mus musculus [5]): 153.8 ng/mL
Activity (Mus musculus [13]): Active
inhibition (RPMI-8226): Active
Activity (Mus musculus [27]): 123 ng/mL
Activity (Mus musculus [29]): Active
IC50 [31]: > 10 µM
inhibition (Rattus norvegicus): Active
Activity (Mus musculus [37]): Active
